Among the data in patent publication US12435058B2, “KIF18A inhibitors” (AMGEN INC., priority 2019, dated 2025) are IC50 values, retold here.

The test addresses T1, Recombinant human KIF18A (1-467 His-tagged) protein (Homo sapiens, UniProt Q8NI77).
T1 construct: Recombinant human KIF18A (1-467 His-tagged) protein; His; made in house
The test is described as follows: KIF18A Enzyme Assay (microtubule-stimulated ATPase activity, ADP-Glo). The class given is biochemical. The settings on record: KIF18A protein 30 nM, ATP 75 μM (at Km), 30 μg/mL pig microtubules, ADP-Glo luminescence. The text has this: For compounds in Table A, the following assay conditions were employed:
KIF18A Enzyme Assay: Microtubule-stimulated ATPase activity assay is used to measure KIF18A enzyme activity after treatment with compound. Compounds were 2-fold serially diluted in DMSO (Sigma Inc) over 22-point concentration range. Recombinant human KIF18A (1-467 His-tagged) protein was expressed using a baculovirus system and purified by affinity chromatography by Amgen Inc. Concentrations of KIF18A protein, microtubules (MT), and ATP in the reaction were optimized for standardized homogenous enzyme assay using ADP-Glom Kinase/ATPase Assay Kit (Promega Inc). The assay measures ADP formed from the ATPase reaction. […] Read luminescence using EnVision microplate reader with ultra-luminescence module (Perkin Elmer Inc). Concentration-response curve-fitting and IC50 determination was performed using Genedata Screener Software (Standard 15.0.1, Genedata Inc) with a four-parameter logistic regression fit model.
A general note: ADP-Glo turns the ADP formed in a reaction into a luminescent signal.

T1 sequence (Q8NI77 1-467): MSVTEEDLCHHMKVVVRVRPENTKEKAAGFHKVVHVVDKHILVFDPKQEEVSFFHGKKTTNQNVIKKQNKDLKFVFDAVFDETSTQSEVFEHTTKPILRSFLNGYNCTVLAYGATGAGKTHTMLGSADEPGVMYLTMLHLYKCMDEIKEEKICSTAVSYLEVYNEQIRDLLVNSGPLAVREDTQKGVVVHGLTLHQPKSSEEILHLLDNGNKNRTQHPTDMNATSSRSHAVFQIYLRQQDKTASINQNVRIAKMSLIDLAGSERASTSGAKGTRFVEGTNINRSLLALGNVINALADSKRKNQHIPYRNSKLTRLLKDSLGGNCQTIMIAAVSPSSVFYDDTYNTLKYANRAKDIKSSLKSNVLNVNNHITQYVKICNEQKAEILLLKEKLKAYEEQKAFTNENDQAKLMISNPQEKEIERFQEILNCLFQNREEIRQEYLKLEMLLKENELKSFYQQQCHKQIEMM
T1 sequence (P02550 whole entry partner): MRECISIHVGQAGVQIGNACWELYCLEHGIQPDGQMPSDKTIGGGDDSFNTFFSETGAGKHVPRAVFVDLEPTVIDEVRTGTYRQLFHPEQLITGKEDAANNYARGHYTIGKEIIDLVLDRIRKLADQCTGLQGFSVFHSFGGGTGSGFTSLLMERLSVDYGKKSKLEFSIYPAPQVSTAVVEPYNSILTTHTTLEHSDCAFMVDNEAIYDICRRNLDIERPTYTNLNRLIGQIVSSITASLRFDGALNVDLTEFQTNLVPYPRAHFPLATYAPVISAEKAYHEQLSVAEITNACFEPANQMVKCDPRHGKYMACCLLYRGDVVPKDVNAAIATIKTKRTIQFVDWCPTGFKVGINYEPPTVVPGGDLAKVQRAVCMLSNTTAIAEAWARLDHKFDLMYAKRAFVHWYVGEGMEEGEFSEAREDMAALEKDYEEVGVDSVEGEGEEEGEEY
T1 sequence (P02554 whole entry partner): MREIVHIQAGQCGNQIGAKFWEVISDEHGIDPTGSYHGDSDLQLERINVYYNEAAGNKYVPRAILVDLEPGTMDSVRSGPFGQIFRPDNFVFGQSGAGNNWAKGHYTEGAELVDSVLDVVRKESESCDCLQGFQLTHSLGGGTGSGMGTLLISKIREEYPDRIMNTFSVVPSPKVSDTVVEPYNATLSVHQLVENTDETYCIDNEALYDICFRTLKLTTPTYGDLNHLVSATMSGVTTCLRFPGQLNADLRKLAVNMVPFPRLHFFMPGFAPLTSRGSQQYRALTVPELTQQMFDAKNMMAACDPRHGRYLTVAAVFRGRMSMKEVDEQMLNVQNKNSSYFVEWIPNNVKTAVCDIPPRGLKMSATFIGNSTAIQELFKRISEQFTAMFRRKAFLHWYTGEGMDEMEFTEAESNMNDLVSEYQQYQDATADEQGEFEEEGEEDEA

By IC50 is commonly meant the concentration that inhibits the measured activity by half. In the case of `CCC(C)C1CCN(c2nc(NC(C)(C)CO)cnc2C(=O)Nc2cccc(S(=O)(=O)NC(C)(C)C)c2)CC1` (centres unmarked) [Example 100-8, 3-(4-(sec-butyl)piperidin-1-yl)-N-(3-(N-(tert-butyl)sulfamoyl)phenyl)-5-((1-hydroxy-2-methylpropan-2-yl)amino)pyrazine-2-carboxamide], the IC50 amounted to 163 nM.

Consider `CCCC1CCN(c2nc(NC(C)(C)CO)cnc2C(=O)Nc2cccc(S(=O)(=O)NC(C)(C)C)c2)CC1` [Example 100-9, N-(3-(N-(tert-butyl)sulfamoyl)phenyl)-5-((1-hydroxy-2-methylpropan-2-yl)amino)-3-(4-propylpiperidin-1-yl)pyrazine-2-carboxamide], for which the IC50 is 118 nM.

In the case of `CC(C)(C)NS(=O)(=O)c1cccc(NC(=O)c2ncc(NC(C)(C)CO)nc2N2CCC(C3CC3)CC2)c1` [Example 100-10, N-(3-(N-(tert-butyl)sulfamoyl)phenyl)-3-(4-cyclopropylpiperidin-1-yl)-5-((1-hydroxy-2-methylpropan-2-yl)amino)pyrazine-2-carboxamide], the IC50 turned out to be 221 nM.

With `COCC1CCN(c2nc(NC(C)(C)CO)cnc2C(=O)Nc2cccc(S(=O)(=O)NC(C)(C)C)c2)CC1` [Example 100-11, N-(3-(N-(tert-butyl)sulfamoyl)phenyl)-5-((1-hydroxy-2-methylpropan-2-yl)amino)-3-(4-(methoxymethyl)piperidin-1-yl)pyrazine-2-carboxamide], the IC50 was determined as 1390 nM.

With `CC(C)(C)NS(=O)(=O)c1cccc(NC(=O)c2ncc(NC(C)(C)CO)nc2N2CC3(CCC3)C2)c1` [Example 100-12, N-(3-(N-(tert-butyl)sulfamoyl)phenyl)-5-((1-hydroxy-2-methylpropan-2-yl)amino)-3-(2-azaspiro[3.3]heptan-2-yl)pyrazine-2-carboxamide], the IC50 was 931 nM.

Take `CC(C)(C)NS(=O)(=O)c1cccc(NC(=O)c2ncc(NC(C)(C)CO)nc2N2CC3(CCCCC3)C2)c1` [Example 100-13, N-(3-(N-(tert-butyl)sulfamoyl)phenyl)-5-((1-hydroxy-2-methylpropan-2-yl)amino)-3-(2-azaspiro[3.5]nonan-2-yl)pyrazine-2-carboxamide]: the IC50 turned out to be 410 nM.

As for `CC(C)(C)NS(=O)(=O)c1cccc(NC(=O)c2ncc(NC(C)(C)CO)nc2N2CCC3(CCOCC3)CC2)c1` [Example 100-14, N-(3-(N-(tert-butyl)sulfamoyl)phenyl)-5-((1-hydroxy-2-methylpropan-2-yl)amino)-3-(3-oxa-9-azaspiro[5.5]undecan-9-yl)pyrazine-2-carboxamide], the IC50 was found to be 1380 nM.

For the compound `CC(C)(C)NS(=O)(=O)c1cccc(NC(=O)c2ncc(NC(C)(C)CO)nc2N2CCC3(CCC3)CC2)c1` [Example 100-15, N-(3-(N-(tert-butyl)sulfamoyl)phenyl)-5-((1-hydroxy-2-methylpropan-2-yl)amino)-3-(7-azaspiro[3.5]nonan-7-yl)pyrazine-2-carboxamide], the IC50 came to 77 nM.

`CC(C)(C)NS(=O)(=O)c1cccc(NC(=O)c2ncc(NC(C)(C)CO)nc2N2CCC3(CC2)CC(F)(F)C3)c1` [Example 100-16, N-(3-(N-(tert-butyl)sulfamoyl)phenyl)-3-(2,2-difluoro-7-azaspiro[3.5]nonan-7-yl)-5-((1-hydroxy-2-methylpropan-2-yl)amino)pyrazine-2-carboxamide]: the IC50 is 215 nM.

On to `CC(C)(C)NS(=O)(=O)c1cccc(NC(=O)c2ncc(NC(C)(C)CO)nc2N2CCC3(CCCC3)CC2)c1` [Example 100-17, N-(3-(N-(tert-butyl)sulfamoyl)phenyl)-5-((1-hydroxy-2-methylpropan-2-yl)amino)-3-(8-azaspiro[4.5]decan-8-yl)pyrazine-2-carboxamide], for which the IC50 is 129 nM.

Regarding `Cc1cc(NC(=O)c2ncc(NC(C)(C)CO)nc2N2CCC3(CC2)CC3)cc(S(=O)(=O)NC(C)(C)C)c1` [Example 101, N-(3-(N-(tert-Butyl)sulfamoyl)-5-methylphenyl)-5-((1-hydroxy-2-methylpropan-2-yl)amino)-3-(6-azaspiro[2.5]octan-6-yl)pyrazine-2-carboxamide], the IC50 worked out at 231 nM.

Take `CC(C)(CO)Nc1cnc(C(=O)Nc2cccc(S(=O)(=O)C(C)(C)C(F)(F)F)c2)c(N2CCC3(CC2)CC3)n1` [Example 101-1, 5-((1-hydroxy-2-methylpropan-2-yl)amino)-3-(6-azaspiro[2.5]octan-6-yl)-N-(3-((1,1,1-trifluoro-2-methylpropan-2-yl)sulfonyl)phenyl)pyrazine-2-carboxamide]: the IC50 was determined as 108 nM.

For the compound `CC(C)(CO)Nc1cnc(C(=O)Nc2cccc(S(=O)(=O)C(C)(C)C)c2)c(N2CCC3(CC2)CC3)n1` [Example 101-2, N-(3-(tert-butylsulfonyl)phenyl)-5-((1-hydroxy-2-methylpropan-2-yl)amino)-3-(6-azaspiro[2.5]octan-6-yl)pyrazine-2-carboxamide], the IC50 amounted to 218 nM.

Regarding `CC(C)(CO)Nc1cnc(C(=O)Nc2cccc(S(=O)(=O)C3(C)CCC3)c2)c(N2CCC3(CC2)CC3)n1` [Example 101-3, 5-((1-hydroxy-2-methylpropan-2-yl)amino)-N-(3-((1-methylcyclobutyl)sulfonyl)phenyl)-3-(6-azaspiro[2.5]octan-6-yl)pyrazine-2-carboxamide], the IC50 turned out to be 204 nM.

In the case of `CC(C)(C)NS(=O)(=O)c1cc(F)cc(NC(=O)c2ncc(NC(C)(C)CO)nc2N2CCC3(CC2)CC3)c1` [Example 101-4, N-(3-(N-(tert-butyl)sulfamoyl)-5-fluorophenyl)-5-((1-hydroxy-2-methylpropan-2-yl)amino)-3-(6-azaspiro[2.5]octan-6-yl)pyrazine-2-carboxamide], the half-maximal inhibitory concentration (IC50) stood at 172 nM.

For the compound `CC(C)(C)NS(=O)(=O)c1cccc(NC(=O)c2ncc(NC(C)(C)CO)nc2N2CCC3(CC2)CC3)c1F` [Example 101-5, N-(3-(N-(tert-butyl)sulfamoyl)-2-fluorophenyl)-5-((1-hydroxy-2-methylpropan-2-yl)amino)-3-(6-azaspiro[2.5]octan-6-yl)pyrazine-2-carboxamide], the IC50 was 527 nM.

With `CC(C)(CO)Nc1cnc(C(=O)Nc2cccc(N3CCS(=O)(=O)CC3)c2)c(N2CCC3(CC2)CC3)n1` [Example 101-6, N-(3-(1,1-dioxidothiomorpholino)phenyl)-5-((1-hydroxy-2-methylpropan-2-yl)amino)-3-(6-azaspiro[2.5]octan-6-yl)pyrazine-2-carboxamide], the IC50 turned out to be 545 nM.

As for `CC(C)(CO)Nc1cnc(C(=O)Nc2cccc(N3CCOCC3)c2)c(N2CCC3(CC2)CC3)n1` [Example 101-7, 5-((1-hydroxy-2-methylpropan-2-yl)amino)-N-(3-morpholinophenyl)-3-(6-azaspiro[2.5]octan-6-yl)pyrazine-2-carboxamide], the IC50 turned out to be 768 nM.

As to `CC(C)(CO)Nc1cccc(NC(=O)c2ncc(NC(C)(C)CO)nc2N2CCC3(CC2)CC3)c1` [Example 101-8, 5-((1-hydroxy-2-methylpropan-2-yl)amino)-N-(3-((1-hydroxy-2-methylpropan-2-yl)amino)phenyl)-3-(6-azaspiro[2.5]octan-6-yl)pyrazine-2-carboxamide], the IC50 was determined as 240 nM.

Regarding `CC(C)(CO)Nc1cnc(C(=O)Nc2cccc(S(=O)(=O)C3CCCC3)c2)c(N2CCC3(CC2)CC3)n1` [Example 103, N-(3-(Cyclopentylsulfonyl)phenyl)-5-((1-hydroxy-2-methylpropan-2-yl)amino)-3-(6-azaspiro[2.5]octan-6-yl)pyrazine-2-carboxamide], the 50% inhibitory concentration (IC50) was 77 nM.

For `CC(C)(CO)Nc1cnc(C(=O)Nc2cccc(S(=O)(=O)N3CCCCC3)c2)c(N2CCC3(CC2)CC3)n1` [Example 103-1, 5-((1-hydroxy-2-methylpropan-2-yl)amino)-N-(3-(piperidin-1-ylsulfonyl)phenyl)-3-(6-azaspiro[2.5]octan-6-yl)pyrazine-2-carboxamide], the IC50 turned out to be 135 nM.

For the compound `O=C(Nc1cccc(S(=O)(=O)C2CCCC2)c1)c1ncc(NC2(CO)CC2)nc1N1CCC2(CC1)CC2` [Example 103-2, N-(3-(cyclopentylsulfonyl)phenyl)-5-((1-(hydroxymethyl)cyclopropyl)amino)-3-(6-azaspiro[2.5]octan-6-yl)pyrazine-2-carboxamide], the IC50 is 143 nM.

For `CC(C)(C)NS(=O)(=O)c1cccc(NC(=O)c2ncc(NC3(CO)CC3)nc2N2CCC3(CC2)CC3)c1` [Example 103-3, N-(3-(N-(tert-butyl)sulfamoyl)phenyl)-5-((1-(hydroxymethyl)cyclopropyl)amino)-3-(6-azaspiro[2.5]octan-6-yl)pyrazine-2-carboxamide], the IC50 was 139 nM.

On to `CC(C)(O)CNc1cnc(C(=O)Nc2cccc(S(=O)(=O)N3CCCCC3)c2)c(N2CCC3(CC2)CC3)n1` [Example 103-4, 5-((2-hydroxy-2-methylpropyl)amino)-N-(3-(piperidin-1-ylsulfonyl)phenyl)-3-(6-azaspiro[2.5]octan-6-yl)pyrazine-2-carboxamide], for which the IC50 was determined as 406 nM.

Regarding `CC(C)(C)NS(=O)(=O)c1cccc(NC(=O)c2ncc(NC(C)(C)CO)nc2-c2ccc(Cl)cc2)c1` [Example 104, N-(3-(N-(tert-butyl)sulfamoyl)phenyl)-3-(4-chlorophenyl)-5-((1-hydroxy-2-methylpropan-2-yl)amino)pyrazine-2-carboxamide], the IC50 came out at 135 nM.

As for `CC(C)(C)NS(=O)(=O)c1cccc(NC(=O)c2ncc(NC(C)(C)CO)nc2-c2ccc(F)cc2)c1` [Example 104-1, N-(3-(N-(tert-butyl)sulfamoyl)phenyl)-3-(4-fluorophenyl)-5-((1-hydroxy-2-methylpropan-2-yl)amino)pyrazine-2-carboxamide], the IC50 was found to be 418 nM.
